Like-named read-outs stand apart in the source and are kept apart here.
Tests used:
[1] = molecular target: T1, FGF-R1C ECD (Homo sapiens, UniProt P11362); experiment: biochemical
T1 sequence (P11362 22-376 limits assumed): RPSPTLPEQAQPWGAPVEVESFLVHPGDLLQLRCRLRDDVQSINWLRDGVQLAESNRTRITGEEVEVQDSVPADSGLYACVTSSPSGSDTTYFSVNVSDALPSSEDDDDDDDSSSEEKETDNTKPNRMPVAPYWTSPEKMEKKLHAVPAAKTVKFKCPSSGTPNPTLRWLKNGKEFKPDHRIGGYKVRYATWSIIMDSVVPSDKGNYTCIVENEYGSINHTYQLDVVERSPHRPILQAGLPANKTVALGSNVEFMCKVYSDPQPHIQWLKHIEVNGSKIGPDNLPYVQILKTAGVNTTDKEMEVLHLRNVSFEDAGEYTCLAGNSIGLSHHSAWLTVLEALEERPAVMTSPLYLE
Method: (§1) KD affinity binding measurements were obtained by biolayer interferometry (BLI) instruments (Fortebio Octet HTX, or Sartorius Octet RH16 using either 8 or 16 channel mode.
(§2) For single concentration binding experiments, 50 μM peptide stocks in folding buffer were diluted 1:50 in mRNA display selection buffer (PBS pH7.4 supplemented with 0.05% Tween-20 and 0.01% BSA) in either a 96 well black plate, or a 384 well tilted bottom microplate (ForteBio). Biotinylated FGF-R protein was loaded onto Streptavidin-functionalised biosensors (ForteBio) and immersed into ~1 μM peptide to obtain association kinetics curves. Dissociation kinetics curves were obtained by subsequent immersion of ligand-associated loaded sensors into a 1:50 dilution of folding buffer in mRNA display selection buffer. Fitted KD data was adjusted for concentration as determined by UPLC-CAD.
(§3) For accurate multi-concentration KD determination, dilution series of each peptide were made, and association and dissociation kinetics curves were obtained as above for each concentration to fit a multi-point KD binding model. Data collection and analysis was performed using the Octet Instrument Control […]
(§4) concentration assay kinetics curves shown in supplementary Figure S 19-24.

[2] = molecular target: T2, FGF-R3C ECD (Homo sapiens, UniProt P22607); experiment: biochemical
T2 sequence (P22607 23-375 limits assumed): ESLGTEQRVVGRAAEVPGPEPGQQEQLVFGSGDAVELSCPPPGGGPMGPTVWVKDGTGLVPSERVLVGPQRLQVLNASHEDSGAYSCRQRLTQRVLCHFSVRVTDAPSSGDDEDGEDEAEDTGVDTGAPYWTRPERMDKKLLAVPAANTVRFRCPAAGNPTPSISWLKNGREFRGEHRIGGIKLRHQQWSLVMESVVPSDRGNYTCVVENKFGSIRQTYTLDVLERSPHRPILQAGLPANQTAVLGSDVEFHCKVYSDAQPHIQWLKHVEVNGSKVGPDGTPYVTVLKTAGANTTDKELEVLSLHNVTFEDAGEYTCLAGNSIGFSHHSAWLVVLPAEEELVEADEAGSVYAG
Method: as §1, §2, §3, §4

[3] = molecular target: T3, FGF-R4 ECD (Homo sapiens, UniProt P22455); experiment: multi-concentration BLI of purified peptides; assay type: binding; settings: purified trimer-18 library peptides
T3 construct: DNA constructs for the extracellular domain (ECD) of human FGF-; HPC4 (C); made in house; host or cells: HEK 293-6E
T3 sequence (P22455 22-369 limits assumed): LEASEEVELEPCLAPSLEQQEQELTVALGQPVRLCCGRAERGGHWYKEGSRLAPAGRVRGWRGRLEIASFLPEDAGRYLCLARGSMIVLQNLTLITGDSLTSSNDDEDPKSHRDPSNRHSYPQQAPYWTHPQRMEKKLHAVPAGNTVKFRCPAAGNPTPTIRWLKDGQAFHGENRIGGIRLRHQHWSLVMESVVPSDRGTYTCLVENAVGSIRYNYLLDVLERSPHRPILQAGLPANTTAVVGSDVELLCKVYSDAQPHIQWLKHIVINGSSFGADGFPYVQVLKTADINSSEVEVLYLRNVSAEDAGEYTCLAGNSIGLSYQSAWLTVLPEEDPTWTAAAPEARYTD
Method: as §1, §2, §3, §4

[4] = molecular target: T3, FGF-R4 ECD; experiment: single concentration BLI of crude peptides; assay type: binding; settings: crude T18 selection 1 (1:1:1) peptides, single concentration BLI (Table S4); read-out: KD (4)
Outline: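 Biotinylated FGF-R ECD on streptavidin biosensors was dipped into ~1 μM crude peptide in PBS pH7.4 with 0.05% Tween-20 and 0.01% BSA for association, then into buffer for dissociation, and followed by BLI. Fitted KD values were adjusted for peptide concentration measured by UPLC-CAD.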

[5] = molecular target: T1, FGF-R1C ECD; experiment: biochemical; assay type: binding; set-up: DNA constructs for the extracellular domain (ECD) of human FGF-; HPC4 (C); made in house; host or cells: HEK 293-6E
Outline: (§5)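 Biolayer interferometry with biotinylated FGF-R ECD on streptavidin biosensors in PBS pH 7.4, 0.05% Tween-20, 0.01% BSA. Multi-concentration: purified peptide dilution series fitted to a multi-point KD model.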

[6] = molecular target: T2, FGF-R3C ECD; experiment: biochemical; assay type: binding; set-up: DNA constructs for the extracellular domain (ECD) of human FGF-; HPC4 (C); made in house; host or cells: HEK 293-6E
Outline: as §5

Structure (SMILES) | Kd ([1]; read-out: R1C KD, purified trimer-18 library peptides, multi-concentration BLI) [nM] | Kd ([2]; read-out: R3C KD, purified trimer-18 library peptides, multi-concentration BLI) [nM] | Kd [3] [nM] | Kd [4] [nM] | Kd ([5]; read-out: KD (1C)) [nM] | Kd ([6]; read-out: KD(3C)) [µM] | Kd [1] [nM] | Kd [2] [nM] | Kd [5] [nM] | Kd [6] [µM] | R4 KD (nM) [3]
CSCC[C@H](NC(C)=O)C(=O)N[C@H]1CSSC[C@@H](C(=O)NCC(=O)N[C@@H](CO)C(=O)NCC(=O)N[C@@H](CO)C(=O)N[C@@H](CCC(=O)O)C(=O)N[C@@H](CCC(=O)O)C(=O)NCC(=O)N[C@@H](CO)C(=O)NCC(=O)N[C@@H](CO)C(=O)N[C@@H](CC(=O)O)C(=O)N[C@@H](Cc2ccc(O)cc2)C(=O)N[C@@H](CCCCN)C(=O)N[C@@H](CC(=O)O)C(=O)N[C@@H](CC(=O)O)C(=O)N[C@@H](CC(=O)O)C(=O)N[C@@H](CC(=O)O)C(=O)N[C@@H](CCCCN)C(N)=O)NC(=O)[C@H](CCCCN)NC(=O)[C@H](CCCCN)NC(=O)[C@H](Cc2c[nH]c3ccccc23)NC(=O)[C@H](CC(C)C)NC(=O)[C@H](CC(C)C)NC(=O)[C@H](Cc2ccc(O)cc2)NC(=O)[C@H](Cc2ccc(O)cc2)NC(=O)[C@H](Cc2ccc(O)cc2)NC(=O)[C@H](CC(C)C)NC(=O)[C@H](Cc2c[nH]cn2)NC(=O)[C@H](CCCCN)NC1=O [4.10] | > 1000 | 519 | 2 | 1 | 1030 | 0.928 |  |  |  |  | 
CSCC[C@H](NC(C)=O)C(=O)N[C@H]1CSSC[C@@H](C(=O)NCC(=O)N[C@@H](CO)C(=O)NCC(=O)N[C@@H](CO)C(=O)N[C@@H](CCC(=O)O)C(=O)N[C@@H](CCC(=O)O)C(=O)NCC(=O)N[C@@H](CO)C(=O)NCC(=O)N[C@@H](CO)C(=O)N[C@@H](CC(=O)O)C(=O)N[C@@H](Cc2ccc(O)cc2)C(=O)N[C@@H](CCCCN)C(=O)N[C@@H](CC(=O)O)C(=O)N[C@@H](CC(=O)O)C(=O)N[C@@H](CC(=O)O)C(=O)N[C@@H](CC(=O)O)C(=O)N[C@@H](CCCCN)C(N)=O)NC(=O)[C@H](CCCNC(=N)N)NC(=O)[C@H](CCCNC(=N)N)NC(=O)[C@H](Cc2c[nH]c3ccccc23)NC(=O)[C@H](CC(C)C)NC(=O)[C@H](CCCCN)NC(=O)[C@H](Cc2ccc(O)cc2)NC(=O)[C@H](Cc2ccc(O)cc2)NC(=O)[C@H](Cc2ccc(O)cc2)NC(=O)[C@H](CC(C)C)NC(=O)[C@H]([C@@H](C)O)NC(=O)[C@H]([C@@H](C)O)NC1=O [4.9] |  |  | > 1000 | 1 |  |  | > 1000 | > 1000 | 699 | 2.25 | 
CSCC[C@H](NC(C)=O)C(=O)N[C@H]1CSSC[C@@H](C(=O)NCC(=O)N[C@@H](CO)C(=O)NCC(=O)N[C@@H](CO)C(=O)N[C@@H](CC(=O)O)C(=O)N[C@@H](Cc2ccc(O)cc2)C(=O)N[C@@H](CCCCN)C(=O)N[C@@H](CC(=O)O)C(=O)N[C@@H](CC(=O)O)C(=O)N[C@@H](CC(=O)O)C(=O)N[C@@H](CC(=O)O)C(=O)N[C@@H](CCCCN)C(N)=O)NC(=O)[C@H](CC(C)C)NC(=O)[C@H](CCC(N)=O)NC(=O)[C@H](Cc2c[nH]c3ccccc23)NC(=O)[C@H](CCCCN)NC(=O)[C@H](CCC(=O)O)NC(=O)[C@H](Cc2c[nH]c3ccccc23)NC(=O)[C@H](CC(N)=O)NC(=O)[C@H](Cc2ccc(O)cc2)NC(=O)[C@H](Cc2ccccc2)NC(=O)[C@H](CCCNC(=N)N)NC(=O)[C@H]([C@@H](C)O)NC(=O)[C@H](Cc2ccc(O)cc2)NC1=O [4.13] |  |  | > 1000 | > 10000 |  |  | > 1000 | > 1000 | 17 | > 10 | 
CC[C@H](C)[C@@H]1NC(=O)[C@H](CCCCN)NC(=O)[C@H](CO)NC(=O)[C@H](CC(N)=O)NC(=O)[C@@H]2CCCN2C(=O)[C@@H]2CCCN2C(=O)[C@H](CCCNC(=N)N)NC(=O)[C@H](Cc2c[nH]cn2)NC(=O)[C@H](Cc2ccc(O)cc2)NC(=O)[C@@H](NC(=O)[C@H](CCSC)NC(C)=O)CSSC[C@@H](C(=O)NCC(=O)N[C@@H](CO)C(=O)NCC(=O)N[C@@H](CO)C(=O)N[C@@H](CC(=O)O)C(=O)N[C@@H](Cc2ccc(O)cc2)C(=O)N[C@@H](CCCCN)C(=O)N[C@@H](CC(=O)O)C(=O)N[C@@H](CC(=O)O)C(=O)N[C@@H](CC(=O)O)C(=O)N[C@@H](CC(=O)O)C(=O)N[C@@H](CCCCN)C(N)=O)NC(=O)[C@H](CCCCN)NC(=O)[C@H](CCCNC(=N)N)NC(=O)[C@H](Cc2c[nH]c3ccccc23)NC1=O [4.14] |  |  | 524 | 214 |  |  | > 1000 | > 1000 | > 10000 | > 10 | 
CSCC[C@H](NC(C)=O)C(=O)N[C@H]1CSSC[C@@H](C(=O)NCC(=O)N[C@@H](CO)C(=O)NCC(=O)N[C@@H](CO)C(=O)N[C@@H](CC(=O)O)C(=O)N[C@@H](Cc2ccc(O)cc2)C(=O)N[C@@H](CCCCN)C(=O)N[C@@H](CC(=O)O)C(=O)N[C@@H](CC(=O)O)C(=O)N[C@@H](CC(=O)O)C(=O)N[C@@H](CC(=O)O)C(=O)N[C@@H](CCCCN)C(N)=O)NC(=O)[C@H](C)NC(=O)[C@H](Cc2c[nH]c3ccccc23)NC(=O)[C@H](Cc2ccc(O)cc2)NC(=O)[C@H](CCCNC(=N)N)NC(=O)[C@H](Cc2ccc(O)cc2)NC(=O)[C@H](CO)NC(=O)[C@H](Cc2ccc(O)cc2)NC(=O)[C@H](Cc2ccccc2)NC(=O)[C@H](CC(=O)O)NC(=O)[C@H](CC(=O)O)NC(=O)[C@H](CC(C)C)NC(=O)[C@H](Cc2ccc(O)cc2)NC1=O [4.16] |  |  | > 1000 | > 10000 |  |  | 15 | 37 | 54 | > 10 | no observable binding
CSCC[C@H](NC(C)=O)C(=O)N[C@H]1CSSC[C@@H](C(=O)NCC(=O)N[C@@H](CO)C(=O)NCC(=O)N[C@@H](CO)C(=O)N[C@@H](CC(=O)O)C(=O)N[C@@H](Cc2ccc(O)cc2)C(=O)N[C@@H](CCCCN)C(=O)N[C@@H](CC(=O)O)C(=O)N[C@@H](CC(=O)O)C(=O)N[C@@H](CC(=O)O)C(=O)N[C@@H](CC(=O)O)C(=O)N[C@@H](CCCCN)C(N)=O)NC(=O)[C@H](Cc2c[nH]cn2)NC(=O)[C@H](CCCNC(=N)N)NC(=O)[C@H](CC(C)C)NC(=O)[C@H](CC(=O)O)NC(=O)[C@H](CCCCN)NC(=O)[C@H](Cc2ccc(O)cc2)NC(=O)[C@H](CC(C)C)NC(=O)[C@H](CC(C)C)NC(=O)[C@H](C(C)C)NC(=O)[C@H](CC(N)=O)NC1=O [4.17] |  |  | > 1000 | > 10000 |  |  | > 1000 | > 1000 | > 10000 | > 10 | 
